US10766942B2, “Fragments of syndecan-2 having anti-angiogenic activity” (Queen Mary University of London, priority 2014, dated 2020)

What was measured:
[1] = test system: choroidal neovascularisation; experiment: Laser-induced choroidal neovascularisation in vivo; design: species or system mouse; details: C57BL mice; 1 μM; 7 days post injury; injected into the eyes
Protocol: 6 Week old C57BL mice were anaesthetised on day 0 and 3 laser burns were applied to both eyes. On day 3, 1 μl of 4 μM QM107 (hS2pep), PBS or 4 μM scrambled control were injected into both eyes of the animals. On day 7 the choroidal neovascularisation, in response to the laser lesion, were observed by fluorescein angiography. The area of Choroidal neovascularistaion was then calculated by analysis of images using IMAGEJ.
C57BL mice were treated as described above and it is evident from FIG. 11 that around 30% less choroidal neovascularisation occurs in mice treated with 1 μM of QM107 7 days post injury as compared to animals treated with PBS or the scrambled control. N=10 for each condition and significance was calculated using a students t test.

HUVECs [2] = experiment: Scratch wound cell migration assay on HUVEC monolayers; format: cell-based, human
Protocol: In this assay scratches are made in confluent monolayers of HUVECS and the cells incubated in the presence or absence of different concentrations of the human syndecan-2 peptides. Cell migration is measured by time lapse microscopy using an Olympus IX81 microscope with a controlled environment chamber set at 37° C., 10% CO2. Images were captured every 30 minutes using a Hamamatsu Orca ER digital camera and processed using Cell^M software (Olympus). […]
In one assay, scratches were made in confluent monolayers of HUVECs and the cells incubated in the presence or absence of different concentrations of hS2pep (human syndecan-2 peptide) and scrambled peptides (FIG. 1A).
Scratch wound migration assays: Scratch wound migration assays were performed on confluent monolayers of ECs. Wounds were made using a pipette tip, and fusion proteins were added to the medium and images were captured every 30 minutes for 12 hours by time lapse microscopy using an Olympus IX81 microscope. Percentage wound closure was calculated and individual cells tracked using Image J.

Matrigel plugs = experiment: Matrigel plug assay (haemoglobin content); format: in vivo, mouse; details: 50 μM incorporated in plug; C57BL6 mice; vs scrambled peptide control or PBS
Protocol: Mice were sacrificed after three days and the plugs excised, photographed and incubated overnight in PBS. Haemoglobin was quantified using Drabkin's reagent (Sigma) as described by the manufacturer. All experiments were performed under the UK legislation for the protection of animals, and at the end of all in vivo procedures involving anaesthesia, animals were humanely killed by cervical dislocation in accordance with UK Home Office regulations. Excised plugs were frozen in liquid nitrogen and subsequently embedded in ice cold OCT, 15 μm sections were made using a cryostat at −20° C. Following fixation with 4% PFA for 5 min and blocking with 10% Normal Goat Serum for 15 min, sections were stained for nuclei (DRAQ5) and the EC marker CD31 overnight. Images were captured using a PASCAL laser-scanning confocal microscope (Carl Zeiss, 10× objective). Quantification was performed using the IMARIS software and Photoshop (Adobe), ECs were identified by co-localization of nuclei with CD31 staining.
Data is from 2 plugs per animal and is the mean of two measurements.

murine aortic ring = experiment: Mouse aortic ring model of angiogenic sprout formation; format: cell-based; details: 0.5 μM in medium; sprouts counted after 7 days; murine aortic rings
Protocol: Aortic ring assay: Thoracic aortas dissected from cervically dislocated 180-200 g male wistar rats (Harlan Laboratories) or 6 week old C57BL/6 mice (Charles River) were sliced into 0.5 mm sections and incubated overnight in serum free OptiMEM (Invitrogen) at 37° C. Aortic rings were embedded in type I collagen (1 mg/ml) in E4 media (Invitrogen) containing either GST, syndecan-2 mutant proteins or peritoneal exudates in 48 well plates. Wells were supplemented with OptiMEM with 1% FBS and 10 ng/ml VEGF (R and D systems, 30 ng/ml for murine rings) and incubated at 37° C., 10% CO2. Angiogenic sprouts from rat and mouse aortas were counted after 4 days and 8 days respectively (Method based on that of Nicosia and Ottinetti (Laboratory Investigation 63:115-122, 1990) and modified in De Rossi et al. (Journal of Genetic Syndromes & Gene Therapy 4, 2013).
The peptide was added to the medium and sprouts were counted after 7 days in culture. Data represents the mean of at least 15 rings and error bars represent the SEM. Significance is indicated on the basis of a non-paired students t test (p***<0.001).

Choroid explants = experiment: Choroid explant model of angiogenic sprout formation; format: cell-based, mouse; details: doses 0.1 μM to 1 μM, counted after 7 days
Protocol: 18 day old C57BL6 mice were sacrificed by cervical dislocation and eyes were enucleated prior to an incision being made 1 mm below the iris and removal of the iris, cornea lens and retina. The choroid is then removed flattened and cut into 1 mm pieces prior to incubation in serum free OptiMEM o/n at 37° C. Choroid explants are then embedded in a Collagen I matrix containing scrambled or experimental peptides and supplemented with OptiMEM containing 10 ng/ml murine VEGFA. Angiogenic sprouts were counted after 7 days.
The choroid is a vascular bed beneath the retinal pigment epithelium and supplies oxygen and nutrients to the outer retina. The choroid can be readily isolated from the murine eye and when placed in a suitable medium and after 4-6 days in culture vessel sprouting occurs and can be quantified. This assay recapitulates Choroidal neovascularisation, the cause of central vision loss in wet Age Related Macular Degeneration. […] Data is the mean number of sprouts from at least 6 Choroid explants from a total of 8 animals. Error bars represent the SEM and significance was calculated using a students t test p<0.05.

HUVECs [3] = experiment: Capillary network (tubule) formation of HUVECs on growth factor depleted Matrigel; format: cell-based, human; details: 1 μm, FIG. 3B
Protocol: 80,000 HUVECs were seeded into 24 well plates coated with 100 μl/well of growth factor depleted Matrigel (BD Sciences) in the presence of the human syndecan-2 peptides scr or hS2pep at the concentrations indicated (scr corresponds to a scrambled control peptide). Tubule formation was monitored by time lapse microscopy using an Olympus IX81 microscope with a controlled environment chamber set at 37° C., 10% CO2. Images were captured every 30 minutes using a Hamamatsu Orca ER digital camera and processed using Cell^M software (Olympus). (A) Phase contrast images of tubules after 6 hours in culture. (B) Branch points were counted on at least four representative images. A branch point is defined at which two or more tubules meet.
To investigate the inhibitory effect of peptides derived from human syndecan-2, 80,000 HUVECs were seeded into 24 well plates coated with 100 ul/well of growth factor depleted Matrigel in the presence of scr or hS2pep. Tubule formation was monitored by time lapse microscopy (FIG. 3A).

murine skin ECs = experiment: Endothelial cell invasion through Collagen I (transwell); format: cell-based; details: 1 uM, counted after 24 hours, vs scr
Protocol: 50,000 skin ECs were seeded and cells which had passed through the matrix were counted after 24 hours. Cells were stained with Calcein (5 μM) and cells imaged using an Olympus IX81 inverted microscope and a Hamamatuse Orca ER digital camera. Fluorescent cells are shown in (A) and the % migrated cells compared to the untreated control is shown in B. Cell numbers were counted from four independent images and error bars represent the SEM. Significance was calculated using 1 way ANOVA with Tukey's multiple comparison p<0.0001).
Invasion through the extracellular matrix is another indicator of angiogenesis. Collagen I matrices containing 1 uM of hS2pep and scr were prepared in an […] transwell. 50,000 murine skin ECs were seeded and cells which had passed through the matrix were counted after 24 hours.
Invasion assay: Invasion assays through collagen and Matrigel matrices were performed in 24-well plates with transwell inserts (Millipore; 8 μm pore size, polyester (PET) membrane). […] Invasion was measured after 6 hours after which time gels were removed with a cotton swab, the filter washed in PBS and stained with calcein (Invitrogen) and the number of cells attached to the filter was counted.

hS2pep: Peptide derived from human syndecan-2 (SEQ ID NO 6); development name QM107 (PAEEDTNVYTEKHSDSLF; hS2pep peptide derived from human syndecan-2)
Reduction of choroidal neovascularisation (area) compared to PBS or scrambled control [1]: around 30%
Scratch wound closure (HUVECs [2]; 1 uM, HUVECs, FIG. 1B): greatly reduced
HUVEC cell migration (HUVECs [2]; after 4 hours in culture, vs scrambled peptide): significantly inhibited
Haemoglobin content of Matrigel plugs (Matrigel plugs): greatly reduced
Angiogenic sprout formation (murine aortic ring): inhibited
Formation of angiogenic sprouts (Choroid explants): inhibit the formation of angiogenic sprouts
Capillary network formation (number of branch points) (HUVECs [3]): inhibited
Invasion through collagen I (murine skin ECs): inhibited
